Measurements: article PMC4503722, “Novel Phenotypic Outcomes Identified for a Public Collection of Approved Drugs from a Publicly Accessible Panel of Assays” (PLoS ONE, 2015)
Structures can show the parent of a compound that is named as a salt. Where two headings read alike, the source gives them in different places.

Assays:
HeLa cells = experiment: cells; assay type: cell-based; details: read-out: CellCycle G2/M
[1] = test system: HCT116 cells treated with a GSK3β inhibitor; experiment: cells; assay type: cell-based
INS-1E cells = experiment: cells; assay type: cell-based, rat
hJAK2 = target: T1, hJAK2 (Homo sapiens, UniProt O60674); experiment: Cerep LANCE kinase assay hJAK2 (S1 assay 33); assay type: biochemical; details: read-out: JAK2
T1 construct: purchased Cerep (LANCE kinase assay platform, contract assay)

[2] = test system: endothelial tube formation in co-cultures of ECFCs and ADSCs treated with VEGF; experiment: cells; assay type: cell-based, human
DLD-1 = experiment: cells; assay type: cell-based
NCI-H716 cells = experiment: cells; assay type: cell-based, Human
HCT116 = experiment: cells; assay type: cell-based
SW480 = experiment: cells; assay type: cell-based
[3] = test system: nuclear β-catenin in C2C12 cells; experiment: cells; assay type: cell-based
hFLT3 = target: T2, hFLT3 (Homo sapiens, UniProt P36888); experiment: Cerep LANCE kinase assay hFLT3 (S1 assay 35); assay type: biochemical; details: read-out: FLT3
T2 construct: purchased Cerep (LANCE kinase assay platform, contract assay)

hGSK3b = target: T3, hGSK3b (Homo sapiens, UniProt P49841); experiment: Cerep LANCE kinase assay hGSK3b (S1 assay 34); assay type: biochemical; details: read-out: GSK3b
T3 construct: purchased Cerep (LANCE kinase assay platform, contract assay)

hKDR = target: T4, hKDR (Homo sapiens, UniProt P35968); experiment: Cerep LANCE kinase assay hKDR (S1 assay 32); assay type: biochemical; details: read-out: KDR
T4 construct: purchased Cerep (LANCE kinase assay platform, contract assay)

hp70S6K1 (RPS6KB1) = target: T5, hp70S6K1 (RPS6KB1) (Homo sapiens, UniProt P23443); experiment: Cerep LANCE kinase assay hp70S6K1 (S1 assay 31); assay type: biochemical; details: read-out: p70S6K1
T5 construct: purchased Cerep (LANCE kinase assay platform, contract assay)

HT-29 = experiment: cells; assay type: cell-based; details: Homo sapiens
SNU-C1 = experiment: cells; assay type: cell-based; details: Homo sapiens
RKO = experiment: cells; assay type: cell-based; details: Homo sapiens, RKO
Colo320 = experiment: cells; assay type: cell-based; details: Homo sapiens, COLO 320, 72 h, read-out: Colo320 viab. IC50
[4] = Homo sapiens, HCT-116, read-out: GSK3b inh pretreated_Viability ATP HCT116
[5] = Homo sapiens, DLD-1, read-out: Basal_Viability ATP DLD-1
[6] = Homo sapiens, HCT-116, read-out: Basal_Viability ATP HCT116
[7] = Homo sapiens, SW480, read-out: Basal_Viability ATP SW480

T5 sequence (P23443 whole entry): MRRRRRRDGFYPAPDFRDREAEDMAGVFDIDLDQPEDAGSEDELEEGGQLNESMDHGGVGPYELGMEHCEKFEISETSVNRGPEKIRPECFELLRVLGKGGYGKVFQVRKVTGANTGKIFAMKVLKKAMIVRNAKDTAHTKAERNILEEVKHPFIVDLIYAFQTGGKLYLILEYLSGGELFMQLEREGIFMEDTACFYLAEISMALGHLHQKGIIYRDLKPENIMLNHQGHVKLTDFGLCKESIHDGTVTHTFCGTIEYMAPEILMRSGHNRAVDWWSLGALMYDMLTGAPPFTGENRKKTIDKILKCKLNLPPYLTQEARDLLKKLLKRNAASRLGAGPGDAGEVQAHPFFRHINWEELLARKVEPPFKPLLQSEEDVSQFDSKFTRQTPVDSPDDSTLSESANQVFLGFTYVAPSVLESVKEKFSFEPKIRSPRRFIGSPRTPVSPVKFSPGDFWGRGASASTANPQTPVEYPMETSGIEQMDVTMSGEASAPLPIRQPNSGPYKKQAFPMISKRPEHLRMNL
T1 sequence (O60674 whole entry): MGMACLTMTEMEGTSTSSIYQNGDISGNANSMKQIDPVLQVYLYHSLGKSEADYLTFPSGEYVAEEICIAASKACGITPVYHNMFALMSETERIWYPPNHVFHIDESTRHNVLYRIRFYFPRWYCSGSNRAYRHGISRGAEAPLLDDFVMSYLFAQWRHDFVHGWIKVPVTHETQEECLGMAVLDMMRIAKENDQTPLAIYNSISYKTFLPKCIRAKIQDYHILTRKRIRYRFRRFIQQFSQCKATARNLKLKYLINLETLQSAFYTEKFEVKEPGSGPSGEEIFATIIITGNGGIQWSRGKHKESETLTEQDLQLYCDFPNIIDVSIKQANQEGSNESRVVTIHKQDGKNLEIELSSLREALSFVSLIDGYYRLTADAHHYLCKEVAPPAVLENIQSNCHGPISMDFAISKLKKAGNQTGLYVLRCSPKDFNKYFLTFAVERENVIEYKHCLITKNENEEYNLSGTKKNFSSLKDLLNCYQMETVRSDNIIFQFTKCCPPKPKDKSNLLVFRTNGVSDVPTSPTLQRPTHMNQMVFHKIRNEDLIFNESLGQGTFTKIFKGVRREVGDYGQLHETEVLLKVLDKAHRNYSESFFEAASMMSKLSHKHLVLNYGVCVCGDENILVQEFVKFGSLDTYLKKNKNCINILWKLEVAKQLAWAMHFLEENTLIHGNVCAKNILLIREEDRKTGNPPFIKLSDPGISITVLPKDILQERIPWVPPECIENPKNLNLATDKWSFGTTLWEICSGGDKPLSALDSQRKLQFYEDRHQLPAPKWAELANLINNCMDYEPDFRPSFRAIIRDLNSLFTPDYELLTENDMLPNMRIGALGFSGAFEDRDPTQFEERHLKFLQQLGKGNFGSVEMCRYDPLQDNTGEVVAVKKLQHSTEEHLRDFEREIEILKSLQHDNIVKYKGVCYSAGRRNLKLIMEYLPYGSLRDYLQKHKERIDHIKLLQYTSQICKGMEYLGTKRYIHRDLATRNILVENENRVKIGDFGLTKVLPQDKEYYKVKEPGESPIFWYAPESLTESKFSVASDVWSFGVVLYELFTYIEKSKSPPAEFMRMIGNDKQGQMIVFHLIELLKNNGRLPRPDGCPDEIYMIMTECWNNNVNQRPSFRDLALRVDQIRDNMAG
T2 sequence (P36888 27-993): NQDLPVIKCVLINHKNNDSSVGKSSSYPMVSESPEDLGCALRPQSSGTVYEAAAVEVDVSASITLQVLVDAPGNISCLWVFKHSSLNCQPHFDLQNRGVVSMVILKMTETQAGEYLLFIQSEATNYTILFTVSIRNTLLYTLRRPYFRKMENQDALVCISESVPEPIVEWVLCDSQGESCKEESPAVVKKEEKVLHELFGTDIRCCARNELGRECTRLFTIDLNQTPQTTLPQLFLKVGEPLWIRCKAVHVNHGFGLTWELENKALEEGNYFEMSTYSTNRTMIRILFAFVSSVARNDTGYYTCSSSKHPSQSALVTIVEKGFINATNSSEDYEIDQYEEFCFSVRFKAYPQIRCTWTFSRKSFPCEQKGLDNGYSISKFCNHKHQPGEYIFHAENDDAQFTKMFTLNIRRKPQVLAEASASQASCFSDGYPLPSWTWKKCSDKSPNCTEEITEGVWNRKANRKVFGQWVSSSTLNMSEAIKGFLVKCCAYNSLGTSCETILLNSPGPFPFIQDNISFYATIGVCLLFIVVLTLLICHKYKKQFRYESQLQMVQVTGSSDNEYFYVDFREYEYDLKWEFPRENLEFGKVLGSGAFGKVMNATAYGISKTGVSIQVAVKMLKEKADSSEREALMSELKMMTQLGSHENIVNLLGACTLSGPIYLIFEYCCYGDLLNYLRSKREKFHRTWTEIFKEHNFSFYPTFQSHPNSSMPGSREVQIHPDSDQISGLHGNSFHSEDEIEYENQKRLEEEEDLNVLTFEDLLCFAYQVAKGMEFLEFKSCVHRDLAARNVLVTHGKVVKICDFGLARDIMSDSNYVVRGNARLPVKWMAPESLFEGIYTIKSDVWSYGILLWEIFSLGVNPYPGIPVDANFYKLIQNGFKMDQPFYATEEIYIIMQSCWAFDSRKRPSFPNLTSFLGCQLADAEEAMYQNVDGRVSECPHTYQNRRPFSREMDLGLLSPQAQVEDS
T3 sequence (P49841 whole entry): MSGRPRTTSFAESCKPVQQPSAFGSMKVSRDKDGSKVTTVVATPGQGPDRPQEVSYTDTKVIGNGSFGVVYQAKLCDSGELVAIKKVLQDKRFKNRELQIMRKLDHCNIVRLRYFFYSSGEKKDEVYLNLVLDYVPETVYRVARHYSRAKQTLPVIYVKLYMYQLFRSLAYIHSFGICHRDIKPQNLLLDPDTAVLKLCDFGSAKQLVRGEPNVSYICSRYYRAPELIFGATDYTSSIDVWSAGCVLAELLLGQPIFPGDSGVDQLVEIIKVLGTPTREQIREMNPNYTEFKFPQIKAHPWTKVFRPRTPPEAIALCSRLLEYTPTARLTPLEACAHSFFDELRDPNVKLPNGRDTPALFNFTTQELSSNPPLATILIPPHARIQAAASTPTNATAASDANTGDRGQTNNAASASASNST
T4 sequence (P35968 20-1356): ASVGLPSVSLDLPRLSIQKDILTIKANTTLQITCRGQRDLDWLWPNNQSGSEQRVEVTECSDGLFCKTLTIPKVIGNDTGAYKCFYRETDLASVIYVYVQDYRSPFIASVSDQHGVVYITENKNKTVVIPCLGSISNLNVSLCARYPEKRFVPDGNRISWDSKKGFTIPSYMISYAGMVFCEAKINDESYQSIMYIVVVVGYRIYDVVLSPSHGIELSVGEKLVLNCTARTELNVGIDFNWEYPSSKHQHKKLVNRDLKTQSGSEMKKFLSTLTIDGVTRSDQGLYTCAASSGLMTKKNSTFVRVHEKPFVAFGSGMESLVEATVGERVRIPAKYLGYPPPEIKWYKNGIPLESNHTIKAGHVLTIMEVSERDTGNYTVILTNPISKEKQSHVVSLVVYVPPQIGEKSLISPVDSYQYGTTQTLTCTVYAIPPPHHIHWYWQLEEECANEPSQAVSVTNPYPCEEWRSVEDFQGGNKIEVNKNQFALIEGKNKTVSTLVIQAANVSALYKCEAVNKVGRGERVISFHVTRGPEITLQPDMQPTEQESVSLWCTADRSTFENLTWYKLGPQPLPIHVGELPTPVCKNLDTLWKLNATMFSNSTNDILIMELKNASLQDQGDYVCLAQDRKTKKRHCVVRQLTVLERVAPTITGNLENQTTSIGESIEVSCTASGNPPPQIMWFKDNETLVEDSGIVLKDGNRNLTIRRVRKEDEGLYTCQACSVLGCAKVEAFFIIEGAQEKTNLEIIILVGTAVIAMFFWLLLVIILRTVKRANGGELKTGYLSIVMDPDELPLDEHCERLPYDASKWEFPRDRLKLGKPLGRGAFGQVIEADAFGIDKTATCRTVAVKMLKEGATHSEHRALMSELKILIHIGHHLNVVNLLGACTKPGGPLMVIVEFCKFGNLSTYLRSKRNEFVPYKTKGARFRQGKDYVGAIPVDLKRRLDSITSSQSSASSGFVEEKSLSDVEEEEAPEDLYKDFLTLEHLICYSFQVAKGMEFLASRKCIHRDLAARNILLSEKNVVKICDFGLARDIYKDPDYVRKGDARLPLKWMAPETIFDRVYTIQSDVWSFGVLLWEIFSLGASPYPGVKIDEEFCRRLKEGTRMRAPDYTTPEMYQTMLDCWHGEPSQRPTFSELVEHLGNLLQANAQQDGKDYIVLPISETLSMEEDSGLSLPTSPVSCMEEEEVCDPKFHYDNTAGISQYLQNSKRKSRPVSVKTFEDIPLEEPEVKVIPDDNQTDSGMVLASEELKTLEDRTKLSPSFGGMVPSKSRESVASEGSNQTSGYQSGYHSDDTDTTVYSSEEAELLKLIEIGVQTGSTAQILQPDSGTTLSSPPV

With `C[C@@]12C(=O)OC(=O)[C@]1(C)[C@H]1CC[C@@H]2O1` [Cantharidine] the EC50 (HeLa cells; Homo sapiens, S2 Table, HeLa, 20 = no response at highest concentration) was > 10 µM, the IC50 ([1]; Homo sapiens, HCT-116, HCT116 pretreated with GSK3b inhibitor, read-out: GSK3b inh pretreated_Viability ATP HCT116) was 3.03 µM and the EC50 (INS-1E cells; Rattus norvegicus, INS-1E; read-out: Insulin Secretion) was > 10 µM. For the same compound, the IC50 (hJAK2; kinase assay) was > 20 µM, the IC50 ([2]; Homo sapiens; read-out: Anti-Angiogenesis) was 1.23 µM and the IC50 (DLD-1; Homo sapiens, basal, DLD-1, read-out: Basal_Viability ATP DLD-1) was 1.12 µM. It also gave an EC50 (NCI-H716 cells; Homo sapiens, NCI-H716; read-out: GLP 1 Secretion) of 6.68 µM, an IC50 (HCT116; Homo sapiens, HCT-116, basal, HCT116, read-out: Basal_Viability ATP HCT116) of 7.71 µM and an IC50 (SW480; Homo sapiens, basal, SW480, read-out: Basal_Viability ATP SW480) of 1.86 µM. For the same compound, the EC50 ([3]; Mus musculus, C2C12; read-out: Wnt Pathway) was 1.49 µM, the IC50 (hFLT3; kinase assay) was > 20 µM and the IC50 (hGSK3b; kinase assay) was > 20 µM. The IC50 (hKDR; kinase assay) was > 20 µM and the IC50 (hp70S6K1 (RPS6KB1); kinase assay) was > 20 µM.
In the case of `CCCCCCNC(=O)n1cc(F)c(=O)[nH]c1=O` [Carmofur], the EC50 (HeLa cells; Homo sapiens, HeLa, IC50 / EC50, HeLa) is reported as > 10 µM, the IC50 ([1]; Homo sapiens, HCT-116, GSK3b inhibitor pretreated, read-out: GSK3b inh pretreated_Viability ATP HCT116) is reported as 10.5 µM and the EC50 (INS-1E cells; Rattus norvegicus; IC50 / EC50; INS-1E; read-out: Insulin Secretion) is reported as > 10 µM. For the same compound, the IC50 (hJAK2) was > 20 µM, the IC50 ([2]; Homo sapiens, IC50 / EC50; endothelial tube area, ADSC/ECFC co-culture; read-out: Anti-Angiogenesis) was 4.49 µM and the IC50 (DLD-1; Homo sapiens, DLD-1, basal, read-out: Basal_Viability ATP DLD-1) was > 20 µM. The EC50 (NCI-H716 cells; Homo sapiens; IC50 / EC50; NCI-H716; read-out: GLP 1 Secretion) was > 10 µM, the IC50 (HCT116; Homo sapiens, HCT-116, basal, read-out: Basal_Viability ATP HCT116) was > 20 µM and the IC50 (SW480; Homo sapiens, SW480, basal, read-out: Basal_Viability ATP SW480) was 10.6 µM. For the same compound, the EC50 ([3]; Mus musculus, C2C12, IC50 / EC50; C2C12 beta-catenin translocation; read-out: Wnt Pathway) was 4.98 µM, the IC50 (hFLT3) was > 20 µM and the IC50 (hGSK3b) was > 20 µM. For the same compound, the IC50 (hKDR) was > 20 µM and the IC50 (hp70S6K1 (RPS6KB1)) was > 20 µM.
`[O-][n+]1ccccc1SSc1cccc[n+]1[O-]` [Dipyrithione magnesium sulfate] was tested, and the EC50 (HeLa cells) was > 10 µM, the IC50 ([1]; read-out: GSK3b inh pretreated_Viability ATP HCT116) was > 20 µM and the EC50 (INS-1E cells; read-out: Insulin Secretion) was > 10 µM. For the same compound, the IC50 (hJAK2) was > 20 µM, the IC50 ([2]; read-out: Anti-Angiogenesis) was 0.719 µM and the IC50 (DLD-1; read-out: Basal_Viability ATP DLD-1) was > 20 µM. The EC50 (NCI-H716 cells; read-out: GLP 1 Secretion) was > 10 µM, the IC50 (HCT116; read-out: Basal_Viability ATP HCT116) was 20 µM and the IC50 (SW480; read-out: Basal_Viability ATP SW480) was > 20 µM. For the same compound, the EC50 ([3]; read-out: Wnt Pathway) was 0.131 µM, the IC50 (hFLT3) was > 20 µM and the IC50 (hGSK3b) was > 20 µM. The IC50 (hKDR) was > 20 µM and the IC50 (hp70S6K1 (RPS6KB1)) was > 20 µM.
For `CCCCCCCCCCCCCCCCCCNC(=O)OC1CCN(C(=O)OC[C@H](COC(=O)N(Cc2cccc[n+]2CC)C(=O)c2ccccc2OC)OC)CC1` [E-5880], the EC50 (HeLa cells; IC50 / EC50, HeLa) was > 10 µM, the IC50 ([1]; GSK3b inhibitor pretreated, read-out: GSK3b inh pretreated_Viability ATP HCT116) was 4.42 µM and the EC50 (INS-1E cells; IC50 / EC50; INS-1E; read-out: Insulin Secretion) was > 20 µM. For the same compound, the IC50 (hJAK2) was > 20 µM, the IC50 ([2]; IC50 / EC50; endothelial tube area, ADSC/ECFC co-culture; read-out: Anti-Angiogenesis) was 1.5 µM and the IC50 (DLD-1; basal, read-out: Basal_Viability ATP DLD-1) was 3.28 µM. It also gave an EC50 (NCI-H716 cells; IC50 / EC50; NCI-H716; read-out: GLP 1 Secretion) of 9.52 µM, an IC50 (HCT116; basal, read-out: Basal_Viability ATP HCT116) of 4.11 µM and an IC50 (SW480; basal, read-out: Basal_Viability ATP SW480) of 0.543 µM. The EC50 ([3]; IC50 / EC50; C2C12 beta-catenin translocation; read-out: Wnt Pathway) was > 10 µM, the IC50 (hFLT3) was > 20 µM and the IC50 (hGSK3b) was > 20 µM. The IC50 (hKDR) was > 20 µM and the IC50 (hp70S6K1 (RPS6KB1)) was > 20 µM.
With `CC(C)C[C@H](NC(=O)[C@H](Cc1ccccc1)NC(=O)c1cnccn1)B(O)O` [bortezomib, reference compound] the EC50 (HeLa cells; Homo sapiens, HeLa) was > 10 µM, the IC50 (HT-29; HT-29, 72 h, read-out: HT-29 viab. IC50) was 0.003 µM and the IC50 (HT-29; HT-29, read-out: Basal_Viability ATP HT-29) was 0.00315 µM. For the same compound, the IC50 ([1]; Homo sapiens, HCT-116, 72 h, read-out: HCT-116 (GSK3β) viab. IC50) was 0.002 µM, the IC50 [1, 4] was 0.00241 µM and the EC50 (INS-1E cells; Rattus norvegicus, INS-1E, read-out: Ins. sec. EC50) was > 10 µM. The IC50 (hJAK2) was > 20 µM, the IC50 (SNU-C1; SNU-C1, 72 h, read-out: SNU-C1 viab. IC50) was 0.003 µM and the IC50 (SNU-C1; SNU-C1, read-out: Basal_Viability ATP SNU-C1) was 0.0032 µM. For the same compound, the IC50 (RKO; 72 h, read-out: RKO viab. IC50) was 0.008 µM, the IC50 (RKO; read-out: Basal_Viability ATP RKO) was 0.0081 µM and the IC50 (DLD-1; Homo sapiens, DLD-1, 72 h, read-out: DLD-1 viab. IC50) was 0.006 µM. For the same compound, the IC50 (DLD-1; [5]) was 0.00636 µM, the EC50 (NCI-H716 cells; Homo sapiens, NCI-H716, read-out: GLP1 sec. EC50) was > 10 µM and the IC50 (HCT116; Homo sapiens, HCT-116, 72 h, read-out: HCT-116 viab. IC50) was 0.004 µM. It also gave an IC50 (HCT116; [6]) of 0.00365 µM, an IC50 (Colo320) of 2.8 µM and an IC50 (SW480; Homo sapiens, SW480, 72 h, read-out: SW480 viab. IC50) of 0.005 µM. The IC50 (SW480; [7]) was 0.00513 µM, the IC50 (hFLT3) was > 20 µM and the IC50 (hGSK3b) was > 20 µM. The IC50 (hKDR) was > 20 µM and the IC50 (hp70S6K1 (RPS6KB1)) was > 20 µM.
For `CCC1=C[C@@H]2CN(C1)Cc1c([nH]c3ccccc13)[C@@](C(=O)OC)(c1cc3c(cc1OC)N(C)[C@H]1[C@@](O)(C(=O)OC)[C@H](OC(C)=O)[C@]4(CC)C=CCN5CC[C@]31[C@@H]54)C2` [vinorelbine], the IC50 [1, 4] was 0.0667 µM, the EC50 (INS-1E cells; Rattus norvegicus, INS-1E, read-out: Insulin Secretion) was > 10 µM and the IC50 (hJAK2) was > 20 µM. For the same compound, the IC50 ([2]; Homo sapiens, read-out: Anti-Angiogenesis) was 0.0055 µM, the IC50 (DLD-1; [5]) was 0.214 µM and the EC50 (NCI-H716 cells; Homo sapiens, NCI-H716, read-out: GLP 1 Secretion) was > 10 µM. It also gave an IC50 (HCT116; [6]) of 0.0964 µM, an IC50 (SW480; [7]) of 0.342 µM and an EC50 ([3]; Mus musculus, C2C12, read-out: Wnt Pathway) of 0.0089 µM. The IC50 (hFLT3) was > 20 µM, the IC50 (hGSK3b) was > 20 µM and the IC50 (hKDR) was > 20 µM. For the same compound, the IC50 (hp70S6K1 (RPS6KB1)) was > 20 µM.
